Experimental data: patent US6403594B1, “Benzopyran derivatives” (Recordati, S.A. Chemical and Pharmaceutical Company, priority 1999, dated 2002)

Columns and labels:
[1] = biological target: T1, 5HT1A-serotoninergic receptor (Homo sapiens, UniProt P08908); assay: Radioligand binding, cloned 5-HT1A-serotoninergic receptor in HeLa membranes ([3H]8-OH-DPAT); parameters: expressed in transfected cells; host or cells: HeLa; details: cloned human 5-HT1A receptor in HeLa membranes, mean Ki, read-out: Affinity for 5-HT1A receptor, cloned receptors (Ki)
T1 sequence (P08908 1-422): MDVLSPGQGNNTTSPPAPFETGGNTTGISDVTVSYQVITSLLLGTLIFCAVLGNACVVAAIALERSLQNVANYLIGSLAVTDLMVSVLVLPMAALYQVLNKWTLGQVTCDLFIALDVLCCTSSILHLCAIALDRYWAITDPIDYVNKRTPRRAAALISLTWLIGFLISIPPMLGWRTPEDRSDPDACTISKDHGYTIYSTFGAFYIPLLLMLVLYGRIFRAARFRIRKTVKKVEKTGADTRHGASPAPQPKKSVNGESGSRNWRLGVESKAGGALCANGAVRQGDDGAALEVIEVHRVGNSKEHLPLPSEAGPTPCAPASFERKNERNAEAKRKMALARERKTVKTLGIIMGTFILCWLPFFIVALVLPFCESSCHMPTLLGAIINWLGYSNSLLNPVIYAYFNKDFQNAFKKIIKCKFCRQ

diastolic blood pressure = assay: Lowering of diastolic blood pressure in anaesthetised dogs after i.v. administration; format: in vivo, dog
Procedure: The experiments were performed according to the method of Imagawa J. et al., J. Pharmacol. Methods 22: 103-111, 1989, with substantial modifications, as follows: adult male beagle dogs, weighing 8-10 kg, were anaesthetised with pentobarbital sodium (30 mg/kg i.v. and 2 mg/kg/h i.v.), intubated and spontaneously ventilated with room air. In order to monitor systemic blood pressure (BP), a polyethylene (PE) catheter was introduced into the aortic arch through the left femoral artery. A collateral of the left femoral vein was cannulated for infusion of anaesthetic, and the right femoral vein was cannulated for administration of compounds. For intra-arterial (i.a.) injection of noradrenaline (NA), a PE catheter was introduced into the lower portion of the abdominal aorta via the right external iliac artery. Through such procedure, NA was selectively distributed to the lower urinary tract. A paramedian vertical suprapubic incision extending from the base of the pelvis to the mid-abdominal region was made and the bladder and prostate were exposed. The bladder was manually emptied with a syringe. Prostatic urethral pressure was monitored with a Mikro-tip catheter (5F) introduced into the bladder via the external urethral meatus, and withdrawn until the pressure transducer was positioned in the prostatic region of the urethra. A ligature was secured between the neck of the bladder and urethra to isolate the response of the latter and to avoid any interaction with the bladder. Another ligature was put around the Mikro-tip catheter at the external meatus, to secure the catheter itself. After a stabilising period following the surgical procedure (30 minutes), in which arterial and prostatic urethral pressure were continuously monitored as basal values, i.a. administration of NA was made at intervals of 20 minutes. The doses of NA chosen were such to produce an increase of at least 100% in urethral pressure. The test compounds were administered i.v. in a cumulative manner with intervals of 15-20 minutes between administrations. I.a. injections of NA were repeated 5 minutes after every dosing of test compound with intervals of about 10 minutes between stimulations. In order to compare the effects of the administered compound, dose/response curves (log dose transformation) were constructed by computing, at the peak effect, the percent decrease in diastolic blood pressure and the percent inhibition of the increase in urethral pressure induced by NA.

[2] = biological target: T2, α1d-adrenoceptor (recombinant) (Homo sapiens, UniProt P25100); assay: Radioligand binding, cloned α1d-adrenoceptor ([3H]prazosin); details: read-out: Affinity for recombinant α1d-adrenoceptor, cloned receptors (Ki)
T2 sequence (P25100 1-572): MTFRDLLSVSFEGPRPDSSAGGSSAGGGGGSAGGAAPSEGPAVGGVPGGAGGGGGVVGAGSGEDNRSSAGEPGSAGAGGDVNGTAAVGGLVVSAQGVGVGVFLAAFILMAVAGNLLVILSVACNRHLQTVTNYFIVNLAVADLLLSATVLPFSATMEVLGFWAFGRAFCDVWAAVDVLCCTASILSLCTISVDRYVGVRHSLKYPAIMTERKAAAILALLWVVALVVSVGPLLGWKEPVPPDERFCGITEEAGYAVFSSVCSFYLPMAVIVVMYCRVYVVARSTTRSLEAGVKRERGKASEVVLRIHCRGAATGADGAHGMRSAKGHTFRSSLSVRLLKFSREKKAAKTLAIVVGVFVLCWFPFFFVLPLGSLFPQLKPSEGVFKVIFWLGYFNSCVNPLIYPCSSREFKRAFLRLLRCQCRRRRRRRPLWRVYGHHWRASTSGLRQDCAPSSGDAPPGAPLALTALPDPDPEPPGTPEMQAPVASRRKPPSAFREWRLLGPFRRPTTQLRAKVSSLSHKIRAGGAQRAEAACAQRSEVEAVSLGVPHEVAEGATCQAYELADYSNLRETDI

[3] = biological target: T3, α1a-adrenoceptor (recombinant) (Homo sapiens, UniProt P35348); assay: Radioligand binding, cloned α1a-adrenoceptor ([3H]prazosin); details: read-out: Affinity for recombinant α1a-adrenoceptor, cloned receptors (Ki)
T3 construct: expressed in transfected cells
T3 sequence (P35348 1-466): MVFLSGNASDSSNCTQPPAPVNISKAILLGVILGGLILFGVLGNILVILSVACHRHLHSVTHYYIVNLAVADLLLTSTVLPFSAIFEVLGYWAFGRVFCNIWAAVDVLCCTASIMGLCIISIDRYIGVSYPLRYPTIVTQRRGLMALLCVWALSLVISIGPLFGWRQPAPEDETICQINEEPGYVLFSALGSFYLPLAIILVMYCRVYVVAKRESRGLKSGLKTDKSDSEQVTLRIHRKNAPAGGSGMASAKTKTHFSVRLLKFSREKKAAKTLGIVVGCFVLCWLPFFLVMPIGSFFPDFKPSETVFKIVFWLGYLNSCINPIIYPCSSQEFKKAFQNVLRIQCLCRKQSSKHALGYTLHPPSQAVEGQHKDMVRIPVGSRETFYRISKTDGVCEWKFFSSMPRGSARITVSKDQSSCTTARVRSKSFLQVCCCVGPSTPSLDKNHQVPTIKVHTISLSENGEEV

Compound	Ki [1] [nM]	DBP ED25: active dose lowering diastolic blood pressure by 25% (diastolic blood pressure) [mg/kg]	Ki [2] [nM]	Ki [3] [nM]
COc1ccc(Cl)cc1N1CCN(CCCNC(=O)c2cccc3c(=O)c(C)c(C(N)=O)oc23)CC1 [Example 1, 2-Carbamoyl-8-{3-[4-(5-chloro-2-methoxyphenyl)-1-piperazinyl]-propylcarbamoyl}-3-methyl-4-oxo-4H-1-benzopyran]	17.2	2.769	57.4	2.4
CCOC(=O)c1oc2c(C(=O)NCCCN3CCN(c4cc(Cl)ccc4OC)CC3)cccc2c(=O)c1C [Example 4, 2-Ethoxycarbonyl-8-{3-[4-(5-chloro-2-methoxyphenyl)-1-piperazinyl]-propylcarbamoyl}-3-methyl-4-oxo-4H-1-benzopyran]	15.2	0.1633	2.75	0.21
